Laboratory results published in patent US11459330B2, “Substituted bicyclic heterocyclic compounds as PRMT5 inhibitors” (LUPIN LIMITED, priority 2017, dated 2022).

Columns and labels:
[1] = tested on: PANC-1 cells; experiment: Anti-cancer assay (Panc-1), cell viability CellTiterGlo; format: cell-based; details: Homo sapiens, PANC-1, 168 h, 7 days
Description: Anticancer Activity Assay
Z-138 cells were seeded at a density of 2000-3000 cells per well in culture media (IMDM+10% FBS). PANC-1 (ATCC, CRL-1469™) and MIA PaCa-2 (ATCC, CRL-1420™) cells were seeded at a density of 200-300 cells per well in culture media (DMEM+10% FBS). Cells were seeded in opaque, flat bottomed tissue culture grade 96-well plates and Z-138 cells (suspension) were seeded and treated on the same day with various concentrations of test compounds. PANC-1 and MIA PaCa-2 cells, being adherent, were kept for overnight settlement at standard cell culture conditions (37° C., 5% CO2). On the following day, cells were treated with various concentrations of test compounds. Cells were treated with test compounds for a period of 96 h, 7 days and 10 days, for Z-138 cells, PANC-1 cells and MIA PaCa-2 cells, respectively. Cell viability was assessed using CellTiterGlo™ (Promega, USA) as per manufacturer's instructions. Relative Light Units (RLU) were read in Synergy™ 2 reader (Biotek, USA). The assay measures cellular ATP as an indicator of cell viability. RLU is proportional to the number of viable cells in the respective well.
% inhibition of cell viability was calculated relative to the vehicle control samples containing media with 0.1% DMSO alone as per the formula below. (Avg. of Untreated Control−Avg. of Test)×100 Avg. of Untreated Control
The IC50 values of individual compounds were calculated with Non Linear Regression Analysis using Graph Pad Prism (Graph Pad software, Inc, USA).
Anti-Cancer Assay (Panc-1)

[2] = target: PRMT5:MEP50 (Homo sapiens, UniProt O14744); experiment: PRMT5 biochemical HTRF assay (Biochemical Assay Protocol 1 / 2); details: biotinylated H4R3 substrate, 1 μM SAM, protocol 1 or 2 not given, activity range 300 pM to 950 pM, read-out: IC50 (PRMT5 inhibition), activity range
Description: Biochemical Assay Protocol 1
(§1) Inhibitory effect of compounds on PRMT5 was assessed using HTRF detection technology in biochemical assay. Biotinylated H4R3 (residues 1-21) was used as a substrate. Compounds were pre-incubated with 15-25 ng PRMT5:MEP50 per well of a 384-well plate for 30 min at room temperature in the assay buffer containing 20 mM Bicine, pH 7.6, 25 mM NaCl, 2 mM DTT, 0.01% Chicken albumin and 0.01% Tween-20. Reaction was initiated by adding 1 μM of SAM and 50 nM biotinylated H4R3. Total assay volume was 15 μL. Reaction was continued for 120 min at room temperature. Then detection solution containing Streptavidin-Eu cryptate, anti-rabbit IgG-XL-665, Histone H4R3 Dimethyl Symmetric (H4R3me2s) Polyclonal Antibody, all prepared in HTRF detection buffer was added and further incubated for 30 min at room temperature. HTRF signal was recorded in PHERAStar microplate reader. Ratio of signal obtained at 665 nm and 620 nm was used to compute the percent inhibition of compound as follows % Inhibition=100−((Test Ratio−Negative control Ratio)/(Positive control Ratio−Negative control Ratio)*100) where Positive control=PRMT5+SAM+H4R3 Negative control=PRMT5+H4R3 Biochemical Assay Protocol 2
as §1, with “2.5” for “15-25”, “4 h” for “120 min”, “control=PRMT5+H4R3” for “control=PRMT5+H4R3 Biochemical Assay Protocol 2”

[3] = activity range, lower bound in pM, upper bound in nM

Sequence of PRMT5:MEP50 (O14744 whole entry): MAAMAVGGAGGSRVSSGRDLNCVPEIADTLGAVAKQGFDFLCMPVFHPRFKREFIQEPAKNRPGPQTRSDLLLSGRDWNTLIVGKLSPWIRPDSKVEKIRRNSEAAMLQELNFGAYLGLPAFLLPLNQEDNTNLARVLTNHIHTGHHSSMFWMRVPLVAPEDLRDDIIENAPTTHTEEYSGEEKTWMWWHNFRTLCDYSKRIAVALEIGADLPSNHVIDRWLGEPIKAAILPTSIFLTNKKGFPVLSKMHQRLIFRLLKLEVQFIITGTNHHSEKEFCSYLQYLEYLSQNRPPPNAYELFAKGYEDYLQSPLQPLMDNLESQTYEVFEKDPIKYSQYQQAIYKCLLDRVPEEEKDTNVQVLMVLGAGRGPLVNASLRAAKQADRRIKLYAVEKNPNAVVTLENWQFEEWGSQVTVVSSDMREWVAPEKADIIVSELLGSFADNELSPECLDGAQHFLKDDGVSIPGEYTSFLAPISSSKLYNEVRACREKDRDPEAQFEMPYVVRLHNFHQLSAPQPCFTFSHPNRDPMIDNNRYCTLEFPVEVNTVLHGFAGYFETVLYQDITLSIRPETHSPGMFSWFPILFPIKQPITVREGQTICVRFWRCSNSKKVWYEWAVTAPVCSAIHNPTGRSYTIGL
Sequence of PRMT5:MEP50 (Q9BQA1 whole entry partner): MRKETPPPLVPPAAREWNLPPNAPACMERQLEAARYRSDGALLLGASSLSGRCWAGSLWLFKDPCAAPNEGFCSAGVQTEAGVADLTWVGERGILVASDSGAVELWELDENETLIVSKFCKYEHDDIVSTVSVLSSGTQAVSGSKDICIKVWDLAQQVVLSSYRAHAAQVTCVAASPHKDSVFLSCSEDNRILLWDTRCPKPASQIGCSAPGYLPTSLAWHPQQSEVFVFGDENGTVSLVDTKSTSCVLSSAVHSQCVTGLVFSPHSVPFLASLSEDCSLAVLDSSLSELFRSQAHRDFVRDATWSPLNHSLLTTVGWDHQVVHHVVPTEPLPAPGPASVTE

| Compound | IC50 [1, 3] [pM] | IC50 [2] [nM] | IC50 ([1]; activity range 20 nM to 100 nM) [pM] |
| --- | --- | --- | --- |
| Cc1ncnc2c1ccn2[C@@H]1C=C(C(C)Cc2cc(F)c3cc(Cl)c(N)nc3c2)[C@@H](O)[C@H]1O (single isomer, unassigned) [Compound-35a] | 300 to 20000 |  |  |
| Nc1nc2cc(CCC3=C[C@@H](n4ccc5c(N)ncnc54)[C@H](O)[C@@H]3O)ccc2cc1Br [Compound-1, (1S,2R,5R)-3-(2-(2-Amino-3-bromoquinolin-7-yl)ethyl)-5-(4-amino-7H pyrrolo[2,3-d]pyrimidin-7-yl)cyclopent-3-ene-1,2-diol] | 300 to 20000 | 0.3 to 0.95 |  |
| Cc1ncnc2c1ccn2[C@@H]1C=C(CCc2ccc3cc(Cl)c(N)nc3c2)[C@@H](O)[C@H]1O [Compound-21, (1S,2R,5R)-3-(2-(2-amino-3-chloroquinolin-7-yl)ethyl)-5-(4-methyl-7H-pyrrolo[2,3-d]pyrimidin-7-yl)cyclopent-3-ene-1,2-diol] | 300 to 20000 | 0.3 to 0.95 |  |
| Cc1ncnc2c1ccn2[C@@H]1C=C(C(C)Cc2cc(F)c3cc(Cl)c(N)nc3c2)[C@@](C)(O)[C@H]1O (single isomer, unassigned) [Compound-36a] |  | 0.3 to 0.95 |  |
| Cc1ncnc2c1ccn2[C@@H]1C=C(CCc2cc(F)c3cc(Br)c(N)nc3c2)[C@@H](O)[C@H]1O [Compound-44, (1S,2R,5R)-3-(2-(2-Amino-3-bromo-5-fluoroquinolin-7-yl)ethyl)-5-(4-methyl-7H-pyrrolo[2,3-d]pyrimidin-7-yl)cyclopent-3-ene-1,2-diol] |  | 0.3 to 0.95 |  |
| Nc1nc2cc(CCC3=C[C@@H](n4ccc5c(N)ncnc54)[C@H](O)[C@@H]3O)cc(Cl)c2cc1Cl [Compound-29, (1S,2R,5R)-3-(2-(2-amino-3,5-dichloroquinolin-7-yl)ethyl)-5-(4-amino-7H-pyrrolo[2,3-d]pyrimidin-7-yl)cyclopent-3-ene-1,2-diol] |  |  | 20000 to 100000 |
| Nc1ncc2ccn([C@@H]3C=C(CCc4ccc5cc(Cl)c(N)nc5c4)[C@@H](O)[C@H]3O)c2n1 [Compound-30, (1S,2R,5R)-3-(2-(2-amino-3-chloroquinolin-7-yl)ethyl)-5-(2-amino-7H-pyrrolo[2,3-d]pyrimidin-7-yl)cyclopent-3-ene-1,2-diol] | 300 to 20000 |  |  |
| CC[C@@]1(O)C(CCc2cc(F)c3cc(Cl)c(N)nc3c2)=C[C@@H](n2ccc3c(N)ncnc32)[C@@H]1O [Compound-40, (1S,2R,5R)-3-(2-(2-amino-3-chloro-5-fluoroquinolin-7-yl)ethyl)-5-(4-amino-7H-pyrrolo[2,3-d]pyrimidin-7-yl)-2-ethylcyclopent-3-ene-1,2-diol] | 300 to 20000 |  |  |
| CC(Cc1ccc2cc(Br)c(N)nc2c1)C1=C[C@@H](n2ccc3c(N)ncnc32)[C@H](O)[C@@H]1O (single isomer, unassigned) [Compound-7a] | 300 to 20000 | 0.3 to 0.95 |  |
| Nc1nc2cc(CCC3=C[C@@H](n4ccc5cnccc54)[C@H](O)[C@@H]3O)cc(F)c2cc1Cl [Compound-15, (1S,2R,5R)-3-(2-(2-Amino-3-chloro-5-fluoroquinolin-7-yl)ethyl)-5-(1H-pyrrolo[3,2-c]pyridin-1-yl)cyclopent-3-ene-1,2-diol] |  | 0.3 to 0.95 |  |
| C[C@@]1(O)C(CCc2cc(F)c3cc(Cl)c(N)nc3c2)=C[C@@H](n2ccc3c(N)ncnc32)[C@@H]1O [Compound-37, (1S,2R,5R)-3-(2-(2-amino-3-chloro-5-fluoroquinolin-7-yl)ethyl)-5-(4-amino-7H-pyrrolo[2,3-d]pyrimidin-7-yl)-2-methylcyclopent-3-ene-1,2-diol] | 300 to 20000 | 0.3 to 0.95 |  |
| CC(Cc1ccc2cc(Cl)c(N)nc2c1)C1=C[C@@H](n2ccc3c(N)ncnc32)[C@H](O)[C@@H]1O (single isomer, unassigned) [Compound-34b] | 300 to 20000 | 0.3 to 0.95 |  |
| CC(Cc1cc(F)c2cc(Br)c(N)nc2c1)C1=C[C@@H](n2ccc3c(N)ncnc32)[C@H](O)[C@@H]1O (single isomer, unassigned) [Compound-45a] |  | 0.3 to 0.95 |  |
| Nc1nc2cc(CC[C@@]34C[C@@H]3[C@@H](n3ccc5c(N)ncnc53)[C@H](O)[C@@H]4O)ccc2cc1Br [Compound-73, (1R,2R,3S,4R,5S)-1-(2-(2-Amino-3-bromoquinolin-7-yl)ethyl)-4-(4-amino-7H-pyrrolo [2,3-d]pyrimidin-7-yl)bicyclo[3.1.0]hexane-2,3-diol] | 300 to 20000 | 0.3 to 0.95 |  |
| Nc1nc2cc(OCC3=C[C@@H](n4ccc5c(N)ncnc54)[C@H](O)[C@@H]3O)cc(F)c2cc1Cl [Compound-18, (1S,2R,5R)-3-(((2-amino-3-chloro-5-fluoroquinolin-7-yl)oxy)methyl)-5-(4-amino-7H-pyrrolo[2,3-d]pyrimidin-7-yl)cyclopent-3-ene-1,2-diol] | 300 to 20000 | 0.3 to 0.95 |  |
| CCc1ncnc2c1ccn2[C@@H]1C=C(CCc2cc(F)c3cc(Cl)c(N)nc3c2)[C@@H](O)[C@H]1O [Compound-41, (1S,2R,5R)-3-(2-(2-amino-3-chloro-5-fluoroquinolin-7-yl)ethyl)-5-(4-ethyl-7H-pyrrolo[2,3-d]pyrimidin-7-yl)cyclopent-3-ene-1,2-diol] | 300 to 20000 |  |  |
| CC(Cc1cc(F)c2cc(Cl)c(N)nc2c1)C1=C[C@@H](n2ccc3c(N)ncnc32)[C@H](O)[C@]1(C)O (stereo partly drawn) [Compound-38, (1S,2R,5R)-3-(1-(2-amino-3-chloro-5-fluoroquinolin-7-yl)propan-2-yl)-5-(4-amino-7H-pyrrolo[2,3-d]pyrimidin-7-yl)-2-methylcyclopent-3-ene-1,2-diol] | 300 to 20000 | 0.3 to 0.95 |  |
| Nc1nc2cc(CC[C@@]34C[C@@H]3[C@@H](n3ccc5c(N)ncnc53)[C@H](O)[C@@H]4O)ccc2cc1Cl [Compound-61, (1R,2R,3S,4R,5S)-1-(2-(2-Amino-3-chloroquinolin-7-yl)ethyl)-4-(4-amino-7H-pyrrolo[2,3-d]pyrimidin-7-yl)bicyclo[3.1.0]hexane-2,3-diol] | 300 to 20000 | 0.3 to 0.95 |  |
| Nc1ccc2cc(F)c(CCC3=C[C@@H](n4ccc5c(N)ncnc54)[C@H](O)[C@@H]3O)cc2n1 [Compound-46, (1S,2R,5R)-3-(2-(2-Amino-6-fluoroquinolin-7-yl)ethyl)-5-(4-amino-7H-pyrrolo[2,3-d]pyrimidin-7-yl)cyclopent-3-ene-1,2-diol] | 300 to 20000 |  |  |
| Cc1cc2ccc(CC[C@@]34C[C@@H]3[C@@H](n3ccc5c(N)ncnc53)[C@H](O)[C@@H]4O)cc2nc1N [Compound-54, (1R,2R,3S,4R,5S)-1-(2-(2-Amino-3-methylquinolin-7-yl)ethyl)-4-(4-amino-7H-pyrrolo[2,3-d]pyrimidin-7-yl) bicyclo[3.1.0]hexane-2,3-diol] | 300 to 20000 |  |  |
| Nc1nc2cc(CCC3=C[C@@H](n4ccc5c(N)ncnc54)[C@H](O)[C@@H]3O)ccc2cc1F [Compound-23, (1S,2R,5R)-3-(2-(2-Amino-3-fluoroquinolin-7-yl)ethyl)-5-(4-amino-7H-pyrrolo[2,3-d]pyrimidin-7-yl)cyclopent-3-ene-1,2-diol] |  | 0.3 to 0.95 |  |
| CC(Cc1ccc2cc(Br)c(N)nc2c1)[C@@]12C[C@@H]1[C@@H](n1ccc3c(N)ncnc31)[C@H](O)[C@@H]2O (stereo partly drawn) [76b, (1S,2R,3S,4R,5S)-1-((S)-1-(2-Amino-3-bromoquinolin-7-yl)propan-2-yl)-4-(4-amino-7H-pyrrolo[2,3-d]pyrimidin-7-yl)bicyclo[3.1.0]hexane-2,3-diol] |  |  | 20000 to 100000 |
